Data taken from patent US20250206740A1, “PIPERIDINYL-METHYLPURINE PYRIMIDINES AND RELATED COMPOUNDS AND THEIR USE IN TREATING DISEASES AND CONDITIONS” (K36 Therapeutics, Inc., priority 2022, published 2025).

target: recombinant human NSD2 (Homo sapiens (Human), UniProt O96028); experiment: NSD2 inhibitory activity, modified RBC HotSpot HMT Assay (radiometric, 3H-SAM, oligonucleosome substrate); type: biochemical; conditions: recombinant human NSD2 2 nM, oligonucleosomes from Chicken 0.05 mg/ml, 3H-SAM 1 μM, 1 hour at 30° C.
Protocol: Exemplary compounds were tested for NSD2 inhibitory activity using a modified RBC HotSpot HMT Assay.
A reaction mixture was prepared by adding oligonucleosomes from Chicken (0.05 mg/ml) to freshly prepared reaction buffer containing 50 mM Tris-HCl (pH 8.5), 50 mM NaCl, 5 mM MgCl2, 0.01% Brij35, 1 mM DTT, and 1% DMSO followed by the addition of recombinant human NSD2, (amino acids 2-end) with N-terminal His tag (2 nM; GenBank Accession No. NM_001042424; MW=155.5 kDa; expressed in Sf9 insect cells) and gentle mixing. The test compounds were diluted in DMSO, added to the reaction mixture in nanoliter amounts by using Acoustic Technology (Echo 550, LabCyte Inc. Sunnyvale, CA) and incubated for 20 minutes at room temperature. The reaction was initiated by the addition of S-Adenosyl-L-[methyl-^3H] methionine (3H-SAM; 1 μM), and the mixture was incubated for 1 hour at 30° C. The reaction mixture was delivered to filter paper and the methylated substrate was quantified by scintillation counting. Data analysis was performed using Excel and GraphPad Prism software for IC50 curve fits. For additional information on the histone methyltransferase assay, see, for example, Horiuchi K Y, et al., “Assay Development for Histone Methyltransferases,” Assay Drug Dev Technol. 2013 May; 11 (4): 227-36.

Chain of recombinant human NSD2 (O96028 2-1365 limits assumed): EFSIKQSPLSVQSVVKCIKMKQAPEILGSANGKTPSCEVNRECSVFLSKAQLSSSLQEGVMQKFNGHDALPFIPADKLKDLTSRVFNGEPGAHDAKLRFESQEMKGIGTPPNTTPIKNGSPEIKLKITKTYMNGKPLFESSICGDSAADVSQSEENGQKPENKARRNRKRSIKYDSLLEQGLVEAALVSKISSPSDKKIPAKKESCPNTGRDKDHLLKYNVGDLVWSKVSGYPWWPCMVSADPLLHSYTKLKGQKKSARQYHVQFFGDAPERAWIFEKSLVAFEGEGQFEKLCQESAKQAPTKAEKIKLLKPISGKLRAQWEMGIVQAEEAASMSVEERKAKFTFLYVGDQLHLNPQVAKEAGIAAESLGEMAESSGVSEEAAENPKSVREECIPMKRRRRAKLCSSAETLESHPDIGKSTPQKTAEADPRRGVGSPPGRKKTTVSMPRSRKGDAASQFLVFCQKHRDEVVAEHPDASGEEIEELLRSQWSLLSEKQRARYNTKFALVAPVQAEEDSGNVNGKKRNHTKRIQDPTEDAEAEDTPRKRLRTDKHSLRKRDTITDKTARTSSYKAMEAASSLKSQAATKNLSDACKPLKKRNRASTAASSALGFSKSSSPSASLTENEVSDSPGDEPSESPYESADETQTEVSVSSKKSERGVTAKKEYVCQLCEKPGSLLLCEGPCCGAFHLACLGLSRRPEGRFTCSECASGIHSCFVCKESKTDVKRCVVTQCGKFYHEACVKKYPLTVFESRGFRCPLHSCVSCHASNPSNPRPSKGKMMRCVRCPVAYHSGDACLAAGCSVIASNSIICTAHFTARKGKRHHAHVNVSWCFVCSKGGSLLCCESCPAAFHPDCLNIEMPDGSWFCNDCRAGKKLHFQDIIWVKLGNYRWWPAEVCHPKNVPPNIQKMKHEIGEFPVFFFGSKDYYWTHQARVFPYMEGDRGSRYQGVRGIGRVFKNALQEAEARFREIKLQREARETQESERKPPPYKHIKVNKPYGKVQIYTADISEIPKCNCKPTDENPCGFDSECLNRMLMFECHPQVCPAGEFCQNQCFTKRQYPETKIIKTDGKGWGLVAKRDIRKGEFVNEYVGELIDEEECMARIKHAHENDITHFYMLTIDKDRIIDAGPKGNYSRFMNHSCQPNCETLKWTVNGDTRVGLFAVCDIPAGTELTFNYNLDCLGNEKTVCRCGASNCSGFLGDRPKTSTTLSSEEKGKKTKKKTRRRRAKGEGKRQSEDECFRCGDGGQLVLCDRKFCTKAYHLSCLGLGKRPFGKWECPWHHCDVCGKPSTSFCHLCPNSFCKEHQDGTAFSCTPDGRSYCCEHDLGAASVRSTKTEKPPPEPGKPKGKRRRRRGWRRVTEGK

Compared with `COc1cc(F)c(-c2ncc(N3CCC[C@](N)([C@H](O)C(F)F)C3)c(Cn3cnc4c(N)ncnc43)n2)cc1F` [Compound I-1, (S)-1-((R)-3-amino-1-(4-((6-amino-9H-purin-9-yl)methyl)-2-(2,5-difluoro-4-methoxyphenyl)pyrimidin-5-yl)piperidin-3-yl)-2,2-difluoroethan-1-ol], `COc1cc(F)c(-c2nc(Cn3cnc4c(N)ncnc43)c(N3CCC[C@@](N)([C@H](O)C(F)F)C3)s2)cc1F` [II-2] is lower in IC50: 100 to 1000 nM for the first, 10 to 100 nM for the second.

With `COc1cc(F)c(-c2cc(Cn3cnc4c(N)ncnc43)c(N3CCC[C@](N)([C@H](O)C(F)F)C3)nn2)cc1F` [Compound I-6, (S)-1-((R)-3-amino-1-(4-((6-amino-9H-purin-9-yl)methyl)-6-(2,5-difluoro-4-methoxyphenyl)pyridazin-3-yl)piperidin-3-yl)-2,2-difluoroethan-1-ol] the IC50 was 100 to 1000 nM.
